The text below walks through data of ChEMBL document CHEMBL5696439 (Cancer Res, 2010).

Assay [1] deals with Serine/threonine-protein kinase TAO2 (Homo sapiens) (UniProt Q9UL54). The assay is described as follows: Inhibition of recombinant human GST-tagged TAOK2 (1-314 residues) expressed in insect cells at 2 uM using Ser/Thr 07 as substrate measured after 1 hr by Z'-LYTE assay relative to control. The following applies: Insect cell.
For assay [2], the target named is Proto-oncogene tyrosine-protein kinase receptor Ret (Homo sapiens) (UniProt P07949). Put plainly: Inhibition of recombinant human GST-tagged RET (658-1114 residues) expressed in insect cells at 2 uM using Tyr 02 as substrate measured after 1 hr by Z'-LYTE assay relative to control. The following applies: Insect cell.
Chain of Proto-oncogene tyrosine-protein kinase receptor Ret (Homo sapiens) (P07949 whole entry, the tested form may be a part): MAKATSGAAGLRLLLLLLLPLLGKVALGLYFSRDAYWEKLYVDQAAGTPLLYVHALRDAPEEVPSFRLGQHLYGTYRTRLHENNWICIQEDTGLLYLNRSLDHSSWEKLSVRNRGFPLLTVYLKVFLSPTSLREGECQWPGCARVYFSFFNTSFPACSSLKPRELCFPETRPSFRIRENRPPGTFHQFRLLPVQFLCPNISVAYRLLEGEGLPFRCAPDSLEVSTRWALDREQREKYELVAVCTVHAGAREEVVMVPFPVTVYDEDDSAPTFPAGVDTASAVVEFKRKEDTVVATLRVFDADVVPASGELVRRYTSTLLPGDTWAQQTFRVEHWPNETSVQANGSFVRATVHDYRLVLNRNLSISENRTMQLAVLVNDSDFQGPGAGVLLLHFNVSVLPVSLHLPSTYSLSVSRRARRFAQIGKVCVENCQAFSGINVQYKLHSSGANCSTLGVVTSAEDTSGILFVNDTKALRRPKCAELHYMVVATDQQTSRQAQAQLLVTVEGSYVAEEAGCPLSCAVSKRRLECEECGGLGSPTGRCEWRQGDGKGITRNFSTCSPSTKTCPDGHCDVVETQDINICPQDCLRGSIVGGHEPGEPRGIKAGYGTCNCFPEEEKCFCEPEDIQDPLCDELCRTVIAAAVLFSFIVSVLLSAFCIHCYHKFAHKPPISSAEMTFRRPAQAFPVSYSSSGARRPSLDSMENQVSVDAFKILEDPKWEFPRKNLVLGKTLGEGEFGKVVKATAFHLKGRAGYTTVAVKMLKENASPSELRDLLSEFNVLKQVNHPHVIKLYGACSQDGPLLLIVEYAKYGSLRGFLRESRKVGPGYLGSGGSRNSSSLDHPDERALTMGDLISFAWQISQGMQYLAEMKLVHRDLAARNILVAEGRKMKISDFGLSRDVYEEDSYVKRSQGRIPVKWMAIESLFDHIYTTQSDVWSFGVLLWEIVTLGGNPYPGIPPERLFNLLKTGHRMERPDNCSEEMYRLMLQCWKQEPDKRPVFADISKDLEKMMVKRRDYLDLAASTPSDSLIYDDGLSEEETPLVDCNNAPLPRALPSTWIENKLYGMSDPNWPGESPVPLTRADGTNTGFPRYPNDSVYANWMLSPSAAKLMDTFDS
The target of assay [3] is Calcium/calmodulin-dependent protein kinase type 1D (Homo sapiens) (UniProt Q8IU85). The assay is described as follows: Inhibition of recombinant human full-length His-tagged CAMK1D expressed in insect cells at 2 uM using Ser/Thr 25 as substrate measured after 1 hr by Z'-LYTE assay relative to control. To be noted: Insect cell.
In assay [4] the target is Serine/threonine-protein kinase MRCK beta (Homo sapiens) (UniProt Q9Y5S2). Put plainly: Inhibition of recombinant human His-tagged CDC42BPB (1-473 residues) expressed in baculovirus expression system at 2 uM using Ser/Thr 13 as substrate measured after 1 hr by Z'-LYTE assay relative to control.
Assay [5] concerns MDA-MB-361. Put plainly: Inhibition of protein synthesis in human MDA-MB-361 cells at 1 micromol/L incubated for 3 hrs by [3H] methionine incorporation based scintillation counter analysis relative to control. Type of assay: functional. The following applies: MDA-MB-361, 3 h, dose 1 µmol/L.
The target of a further assay is PI3K p110 beta/p85 alpha (Homo sapiens, UniProt P42338). Put plainly: Inhibition of p110beta/p85alpha (unknown origin) using PIP2 as substrate measured after 15 to 30 mins by fluorescence polarization assay. Type of assay: protein-complex assay. For orientation: Fluorescence polarisation rises when a labelled molecule tumbles more slowly, as on binding a larger partner.

The target in assay [6] is Serine/threonine-protein kinase BRSK1 (Homo sapiens) (UniProt Q8TDC3). The assay is described as follows: Inhibition of recombinant human full-length GST tagged BRSK1 expressed in baculovirus expression system at 2 uM using Ser/Thr 21 as substrate measured after 1 hr by Z'-LYTE assay relative to control.
For assay [7], the target named is Protein kinase C gamma type (Homo sapiens) (UniProt P05129). The assay is described as follows: Inhibition of recombinant human full length GST-tagged PRKCG expressed in insect cells at 2 uM using Ser/Thr 07 as substrate measured after 1 hr by Z'-LYTE assay relative to control. The following applies: Insect cell.
The subject of assay [8] is MDA-MB-361. Put plainly: Antitumor activity against human MDA-MB-361 cells xenografted in female nude mouse model assessed as suppression in P-AKT at S473 level at 50 mg/kg, po qd administered as 5 days on/2 days off regimen for 4 cycles by immunoblot analysis. Type of assay: functional, organism-based. To be noted: time 28.0 day. On the technique in general: In xenograft studies the graft and the host belong to different species.

The subject of a further assay is NCI-H1975. Put plainly: Antitumor activity against human NCI-H1975 cells xenografted in female nude mouse model assessed as survival at 10 mg/kg, po qd administered as 5 days on/2 days off regimen for 4 cycles. It is filed as functional, organism-based. To be noted: time 28.0 day.
The target of assay [9] is Insulin-like growth factor 1 receptor (Homo sapiens) (UniProt P08069). The assay is described as follows: Inhibition of recombinant human His-tagged IGF1R (960-1397 residues) expressed in baculovirus expression system at 2 uM using Tyr 01 as substrate measured after 1 hr by Z'-LYTE assay relative to control.
Chain of Insulin-like growth factor 1 receptor (Homo sapiens) (P08069 31-736 limits assumed): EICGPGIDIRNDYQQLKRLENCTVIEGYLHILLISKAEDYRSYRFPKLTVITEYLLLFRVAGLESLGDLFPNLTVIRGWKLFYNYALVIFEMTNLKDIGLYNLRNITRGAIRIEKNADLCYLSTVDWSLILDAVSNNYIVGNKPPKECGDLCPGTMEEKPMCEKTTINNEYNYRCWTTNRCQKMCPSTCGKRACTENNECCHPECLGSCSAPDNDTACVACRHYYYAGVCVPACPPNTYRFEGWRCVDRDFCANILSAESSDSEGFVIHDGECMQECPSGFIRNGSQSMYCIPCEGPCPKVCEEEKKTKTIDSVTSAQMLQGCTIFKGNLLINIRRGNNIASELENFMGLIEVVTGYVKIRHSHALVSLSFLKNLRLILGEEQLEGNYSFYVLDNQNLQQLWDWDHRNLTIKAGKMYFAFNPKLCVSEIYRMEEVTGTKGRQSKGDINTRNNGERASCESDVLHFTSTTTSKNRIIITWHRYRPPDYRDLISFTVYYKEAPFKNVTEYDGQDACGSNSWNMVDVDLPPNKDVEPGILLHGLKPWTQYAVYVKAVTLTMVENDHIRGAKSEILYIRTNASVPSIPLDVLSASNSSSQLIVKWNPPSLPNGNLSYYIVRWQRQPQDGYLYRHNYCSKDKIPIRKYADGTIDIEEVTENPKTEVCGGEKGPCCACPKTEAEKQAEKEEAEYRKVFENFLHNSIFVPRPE
Chain of Insulin-like growth factor 1 receptor (Homo sapiens) (P08069 741-1367 limits assumed): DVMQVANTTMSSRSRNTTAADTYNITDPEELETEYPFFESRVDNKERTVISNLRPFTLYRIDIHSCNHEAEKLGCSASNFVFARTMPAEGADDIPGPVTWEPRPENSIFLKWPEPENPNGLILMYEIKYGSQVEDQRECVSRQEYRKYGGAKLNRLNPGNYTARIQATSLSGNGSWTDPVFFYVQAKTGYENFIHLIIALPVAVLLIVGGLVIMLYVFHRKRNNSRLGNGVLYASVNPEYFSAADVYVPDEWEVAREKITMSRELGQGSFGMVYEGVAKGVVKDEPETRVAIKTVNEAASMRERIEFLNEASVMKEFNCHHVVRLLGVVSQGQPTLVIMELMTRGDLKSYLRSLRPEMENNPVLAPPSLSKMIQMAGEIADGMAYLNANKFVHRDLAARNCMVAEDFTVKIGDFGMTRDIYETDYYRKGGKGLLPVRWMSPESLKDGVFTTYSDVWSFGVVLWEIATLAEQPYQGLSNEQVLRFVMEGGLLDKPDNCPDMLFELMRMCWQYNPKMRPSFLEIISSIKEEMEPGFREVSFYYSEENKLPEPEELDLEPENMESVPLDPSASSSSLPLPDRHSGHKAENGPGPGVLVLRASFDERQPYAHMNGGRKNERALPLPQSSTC
A further assay deals with HCT-116. Put plainly: Induction of apoptosis in human HCT-116 cells assessed as increase in PARP cleavage at 0.3 to 3 micromol/L incubated for 48 hrs by Western blot analysis. It is filed as functional, cell-based. The following applies: dose 0.3-3 µmol/L. (In general: A western blot detects proteins with antibodies after separation by electrophoresis.)
The target of assay [10] is Tyrosine-protein kinase SYK (Homo sapiens) (UniProt P43405). Put plainly: Inhibition of recombinant human full length GST-tagged SYK expressed in baculovirus expression system at 2 uM using […] as substrate measured after 1 hr by Z'-LYTE assay relative to control.
A further assay has as its system LNCaP. The assay is described as follows: Induction of apoptosis in human LNCaP cells assessed as increase in PARP cleavage at 0.3 to 3 micromol/L incubated for 48 hrs by Western blot analysis. Type of assay: functional, cell-based. To be noted: dose 0.3-3 µmol/L.
The target in assay [11] is Calcium/calmodulin-dependent protein kinase type II subunit alpha (Homo sapiens) (UniProt Q9UQM7). Put plainly: Inhibition of recombinant human full-length His-tagged CAMK2A expressed in insect cells at 2 uM using Ser/Thr 04 as substrate measured after 1 hr by Z'-LYTE assay relative to control. To be noted: Insect cell.
Assay [12] has as its target Serine/threonine-protein kinase 3 (Homo sapiens) (UniProt Q13188). The assay is described as follows: Inhibition of recombinant human full length GST-tagged STK3 expressed in insect cells at 2 uM using Ser/Thr 07 as substrate measured after 1 hr by Z'-LYTE assay relative to control. To be noted: Insect cell.
Assay [13] deals with Tyrosine-protein kinase receptor TYRO3 (Homo sapiens) (UniProt Q06418). The assay is described as follows: Inhibition of recombinant human GST-tagged TYRO3 (451-890 residues) expressed in insect cells at 2 uM using […] as substrate measured after 1 hr by Z'-LYTE assay relative to control. The following applies: Insect cell.
In assay [14] the target is Ephrin type-B receptor 4 (Homo sapiens) (UniProt P54760). The assay is described as follows: Inhibition of recombinant human His-tagged EPHB4 (561-987 residues) expressed in baculovirus expression system at 2 uM using Tyr 01 as substrate measured after 1 hr by Z'-LYTE assay relative to control.
Assay [15] has as its target Protein kinase C zeta type (Homo sapiens) (UniProt Q05513). The assay is described as follows: Inhibition of recombinant human PRKCZ at 2 uM using Ser/Thr 07 as substrate measured after 1 hr by Z'-LYTE assay relative to control.
Assay [16] deals with Serine/threonine-protein kinase 26 (Homo sapiens) (UniProt Q9P289). The assay is described as follows: Inhibition of recombinant human full length GST-tagged MST4 expressed in insect cells at 2 uM using Ser/Thr 07 as substrate measured after 1 hr by Z'-LYTE assay relative to control. The following applies: Insect cell.
Assay [17] deals with Cyclin-dependent kinase 5/CDK5 activator 1 (Homo sapiens) (UniProt Q00535+Q15078). The assay is described as follows: Inhibition of recombinant human full-length GST/His-tagged CDK5/p25 expressed in insect cells at 2 uM using Ser/Thr 12 as substrate measured after 1 hr by Z'-LYTE assay relative to control. The following applies: Insect cell.
Assay [18] concerns the target Receptor tyrosine-protein kinase erbB-2 (Homo sapiens) (UniProt P04626). Put plainly: Inhibition of recombinant human His-tagged ERBB2 (676-1255 residues) expressed in insect cells at 2 uM using Tyr 06 as substrate measured after 1 hr by Z'-LYTE assay relative to control. To be noted: Insect cell.
The target in assay [19] is Serine/threonine-protein kinase 24 (Homo sapiens) (UniProt Q9Y6E0). The assay is described as follows: Inhibition of recombinant human full length GST-tagged STK24 expressed in insect cells at 2 uM using Ser/Thr 07 as substrate measured after 1 hr by Z'-LYTE assay relative to control. The following applies: Insect cell.
Chain of Serine/threonine-protein kinase 24 (Homo sapiens) (Q9Y6E0 whole entry, looked up): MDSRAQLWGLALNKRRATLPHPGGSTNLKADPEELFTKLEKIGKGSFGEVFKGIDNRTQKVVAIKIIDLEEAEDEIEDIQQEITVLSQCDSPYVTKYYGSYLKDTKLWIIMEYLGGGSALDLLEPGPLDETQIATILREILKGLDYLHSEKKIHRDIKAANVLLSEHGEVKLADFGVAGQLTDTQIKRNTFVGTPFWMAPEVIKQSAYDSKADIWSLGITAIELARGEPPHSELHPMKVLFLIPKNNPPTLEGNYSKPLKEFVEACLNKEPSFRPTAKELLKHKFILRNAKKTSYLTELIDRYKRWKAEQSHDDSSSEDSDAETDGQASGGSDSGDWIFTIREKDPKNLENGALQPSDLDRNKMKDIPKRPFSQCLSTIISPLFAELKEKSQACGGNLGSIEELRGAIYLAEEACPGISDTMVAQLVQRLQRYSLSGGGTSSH
For assay [20], the target named is Casein kinase II subunit alpha (Homo sapiens) (UniProt P68400). The assay is described as follows: Inhibition of recombinant human full-length His-tagged CSNK2A1 expressed in baculovirus expression system at 2 uM using Ser/Thr 11 as substrate measured after 1 hr by Z'-LYTE assay relative to control.
Chain of Casein kinase II subunit alpha (Homo sapiens) (P68400 whole entry, looked up): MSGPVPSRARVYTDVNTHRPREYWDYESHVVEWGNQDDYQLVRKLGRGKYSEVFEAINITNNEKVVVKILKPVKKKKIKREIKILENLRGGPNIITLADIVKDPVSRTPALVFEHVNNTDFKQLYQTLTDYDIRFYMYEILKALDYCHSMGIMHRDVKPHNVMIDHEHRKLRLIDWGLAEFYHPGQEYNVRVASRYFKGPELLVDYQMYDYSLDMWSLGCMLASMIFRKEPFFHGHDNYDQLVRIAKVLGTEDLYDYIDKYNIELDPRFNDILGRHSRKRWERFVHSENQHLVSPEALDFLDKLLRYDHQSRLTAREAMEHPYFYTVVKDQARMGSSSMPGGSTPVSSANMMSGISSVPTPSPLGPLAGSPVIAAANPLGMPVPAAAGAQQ

Activity calls are given as the source filed them. The calls are words filed in the database; no cut-off is given here.

Chain of Serine/threonine-protein kinase 3 (Homo sapiens) (Q13188 whole entry, the tested form may be a part): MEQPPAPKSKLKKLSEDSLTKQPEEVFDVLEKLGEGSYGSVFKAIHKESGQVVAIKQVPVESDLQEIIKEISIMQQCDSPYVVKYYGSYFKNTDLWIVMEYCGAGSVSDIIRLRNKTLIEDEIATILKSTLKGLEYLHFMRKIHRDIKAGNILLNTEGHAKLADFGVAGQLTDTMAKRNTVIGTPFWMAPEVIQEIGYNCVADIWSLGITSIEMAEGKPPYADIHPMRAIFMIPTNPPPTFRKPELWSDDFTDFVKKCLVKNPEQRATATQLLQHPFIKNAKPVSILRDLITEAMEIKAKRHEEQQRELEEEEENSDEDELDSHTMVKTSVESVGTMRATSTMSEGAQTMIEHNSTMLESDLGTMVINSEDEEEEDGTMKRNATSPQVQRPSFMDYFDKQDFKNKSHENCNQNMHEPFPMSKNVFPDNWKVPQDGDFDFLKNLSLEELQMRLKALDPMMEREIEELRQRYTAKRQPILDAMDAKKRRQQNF
Chain of Serine/threonine-protein kinase TAO2 (Homo sapiens) (Q9UL54 whole entry, the tested form may be a part): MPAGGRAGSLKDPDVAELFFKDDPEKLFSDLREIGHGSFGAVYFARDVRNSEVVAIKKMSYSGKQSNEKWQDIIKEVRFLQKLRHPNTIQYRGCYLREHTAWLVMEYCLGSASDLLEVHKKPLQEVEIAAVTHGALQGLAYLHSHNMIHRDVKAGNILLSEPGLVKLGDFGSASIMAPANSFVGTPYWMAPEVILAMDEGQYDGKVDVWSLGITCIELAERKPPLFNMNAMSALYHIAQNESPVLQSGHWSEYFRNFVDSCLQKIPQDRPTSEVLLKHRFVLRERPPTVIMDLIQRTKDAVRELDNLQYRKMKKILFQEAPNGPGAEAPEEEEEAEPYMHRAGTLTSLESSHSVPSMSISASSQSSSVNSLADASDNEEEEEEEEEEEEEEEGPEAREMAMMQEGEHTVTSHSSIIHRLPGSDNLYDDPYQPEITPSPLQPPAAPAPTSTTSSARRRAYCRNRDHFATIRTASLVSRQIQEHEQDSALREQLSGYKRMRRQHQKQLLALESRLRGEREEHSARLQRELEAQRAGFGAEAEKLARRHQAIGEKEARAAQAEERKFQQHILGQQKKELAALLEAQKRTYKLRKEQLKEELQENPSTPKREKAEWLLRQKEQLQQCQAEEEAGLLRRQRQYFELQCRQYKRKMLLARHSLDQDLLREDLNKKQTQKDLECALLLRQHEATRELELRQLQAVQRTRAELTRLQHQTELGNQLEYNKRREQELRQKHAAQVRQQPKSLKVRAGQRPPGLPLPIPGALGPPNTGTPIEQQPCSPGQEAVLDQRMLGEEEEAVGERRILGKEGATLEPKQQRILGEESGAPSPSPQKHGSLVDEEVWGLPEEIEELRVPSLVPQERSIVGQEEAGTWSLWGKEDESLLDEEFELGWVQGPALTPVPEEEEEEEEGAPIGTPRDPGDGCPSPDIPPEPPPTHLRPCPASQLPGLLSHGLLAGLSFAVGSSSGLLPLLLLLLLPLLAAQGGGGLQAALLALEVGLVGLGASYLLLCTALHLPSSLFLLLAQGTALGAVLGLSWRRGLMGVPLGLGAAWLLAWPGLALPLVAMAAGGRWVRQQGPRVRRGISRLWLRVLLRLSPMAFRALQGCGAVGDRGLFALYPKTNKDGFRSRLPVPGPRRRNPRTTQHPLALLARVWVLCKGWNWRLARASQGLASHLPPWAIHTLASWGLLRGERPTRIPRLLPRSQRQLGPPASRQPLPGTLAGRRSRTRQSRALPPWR

Take `CNC(=O)Nc1ccc(-c2nc(N3CC4CCC(C3)O4)c3cnn(C4CCC5(CC4)OCCO5)c3n2)cc1`: the inhibition in assay [1] is 3%; in assay [2], 4%; in assay [3], 0%; in assay [4], 9%; in [6], 1%; in assay [7], 11%. For the same compound, the inhibition in assay [9] was 1%; in assay [10] it was 1%; in assay [11] it was 0%; in assay [12] it was 0%; in assay [13] it was 9%; in [14], -4%. For the same compound, the inhibition was 8% in assay [15]; 7% in assay [16]; 1% in [17]; 0% in assay [18]; -1% in assay [19]; 0% in assay [20]. The inhibition at 1 µM in the assay on MDA-MB-361 [5] is around 50%. The same compound registered an IC50 at PI3K p110 beta/p85 alpha above 10 µM. Moreover, the outcome with MDA-MB-361 [8], with NCI-H1975 and with LNCaP was Active. The result in the assay on HCT-116 was inactive.

Broadly, the inhibition is the change of the read-out against control, counted positive when it falls. A word on the IC50: it is the concentration needed to halve the response being measured. A low value points to greater potency.
